Values quoted from earlier work in paper PMC7403827 (Clinical and Translational Medicine, 2020).
Where two headings read alike, the source gives them in different places.

Columns and labels:
[1] = previously reported, cited from earlier work
CYP3A4 = system: CYP3A4; set-up: method as in PMID 28967981; settings: cited from earlier work
[2] = Apatinib 250mg, ref [1] Yu M et al., Clinical Pharmacokinetics 2017
[3] = Apatinib 500mg, ref [2] Ding J et al., J Chromatogr B 2012

In the case of `N#CC1(c2ccc(NC(=O)c3cccnc3NCc3ccncc3)cc2)CCCC1` [Apatinib], the AUC0-24 [1, 2] is given as 3538 (1996-6025) ng·h/ml, the Cmax [1, 2] is given as 581 (321-1216) ng/ml and the AUC0-24 [1, 3] is given as 11295 (70) ng·h/ml. For the same compound, the Cmax [1, 3] was 1521 (75) ng/ml, the Tmax [1, 3] was 3.5 (3-8) h and the “inhibitory effect on CYP3A4” value (CYP3A4) was “strong inhibitory effect”.
